From patent publication EP0714896A1, “INDOL DERIVATIVES USEFUL FOR THE TREATMENT OF MIGRAINE, COMPOSITION AND UTILIZATION” (VITA-INVEST, S.A., priority 1994, dated 1995)

Test system: isolated rabbit saphenous vein
Test: 5HT1-like agonist activity on the isolated rabbit saphenous vein preparation (contraction)
Assay type: cell-based
Conditions: pD2 = -log EC50 of contraction, after phenoxybenzamine 0.3 µM and pargyline 500 µM, 37°C; for EC50: Oryctolagus cuniculus
Description: 5HT1-like agonist activity of the synthesis products on the isolated rabbit saphenous vein preparation.
This study was conducted using the method described by Van Heuven-Nolsen (Van Heuven-Nolsen et al., Eur. J. Pharmacol. 191 (3); 375-382; 1990) and male New Zealand rabbits were used. The animals were sacrificed by exposure to excess CO₂. Thereafter the saphenous vein of each rear extremity was excised. 5 mm long segments were obtained from each vein. Each segment was placed, using appropriate supports, in an organ bath containing a Krebs-Henseleit solution aerated with carbogen and thermostatically controlled to 37°C. These conditions were held for 25 minutes, after which the preparation was subjected to a traction of 2 g at the same time as phenoxybenzamine (0.3 µM) and pargyline (500 µM) were added to the organ bath over 30 minutes. The phenoxybenzamine is an irreversible antagonist of the α-adrenoreceptors, whilst pargyline is a selective monoaminooxidase (MAO) inhibitor. At the end of these 30 minutes, successive washings were performed with Krebs solution every 7 minutes, for a further 30 minutes to remove the excess phenoxybenzamine. Thereafter, the preparation was subjected to an increasing contraction by the addition of cumulative doses of sumatriptan (10⁻⁹ at 3x10⁻⁵ M), followed by washing and allowing to rest for 30 minutes until the segment returns to its basal tension. At the end of this time, a further cumulative curve is plotted with the product to be studied. The pD2 (-log EC₅₀, the product concentration producing 50% of its maximum contraction) and the Emax (maximum contraction achieved) were calculated.

| Compound | EC50 [µM] | RABBIT SAPHENOUS VEIN pD2 |
| --- | --- | --- |
| COc1cncnc1N1CCN(CC=Cc2c[nH]c3ccc(F)cc23)CC1 [Example 83, 5-fluoro-3-{3-[4-(5-methoxy-pyrimidin-4-yl)-piperazin-1-yl]-propenyl}-1H-indole] | 0.724 |  |
| CNS(=O)(=O)Cc1ccc2[nH]cc(CCCNCCN(C)c3ncncc3OC)c2c1 [Example 59, C-[3-(3-{2-[5-methoxy-pyrimidin-4-yl)-methylaminolethylamino}-propyl)-1H-indol-5-yl]-N-methyl-methanesulfonamide.] |  | 6.64±0.24 |
| CNc1ncnc(N2CCN(CCCc3c[nH]c4ccc(CS(=O)(=O)NC)cc34)CC2)c1OC [Example 64, C-(3-{3-[4-(6-methylamino-5-methoxy-pyrimidin-4-yl)-piperazin-1-yl]-propyl}-1H-indol-5-yl)-N-methyl-methanesulfonamide] | 0.105 |  |
| COc1ccc2[nH]cc(CCCN3CCN(c4ncnc(OC)c4OC)CC3)c2c1 [Example 80, 3-{3-[4-(5,6-dimethoxy-pyrimidin-4-yl)-piperazin-1-yl]-propyl}-5-methoxy-1H-indole] | 0.00138 |  |
| NCCc1c[nH]c2ccc(O)cc12 [SEROTONIN, reference compound] | 0.049 |  |
| CNS(=O)(=O)Cc1ccc2[nH]cc(CCN3CCN(c4ncncc4OC)CC3)c2c1 [Example 85, C-(3-{2-[4-(5-methoxy-pyrimidin-4-yl)-piperazin-1-yl]-ethyl}-1H-indol-5-yl)-N-methyl-methanesulfonamide] | 2.63 |  |
| C-(3-{3-[3-(5,6-dimethoxy-pyrimidin-4-yl)-piperazin-1-yl]-1-methyl-1H-indol-5-yl)-N-methyl-methanesulfonamide [Example 78] |  | 6.80±0.56 |
| CNS(=O)(=O)Cc1ccc2[nH]cc(CCCN3CCN(c4ncncc4-c4ccccc4)CC3)c2c1 [Example 87, C-(3-{3-[4-(5-phenyl-pyrimidin-4-yl)-piperazin-1-yl]-propyl}-1H-indol-5-yl)-N-methylmethanesulfonamide] | 0.282 |  |
| COc1cnc(C)nc1N1CCN(CCCc2c[nH]c3ccc(F)cc23)CC1 [Example 70, 5-fluoro-3-{3-[4-(2-methyl-5-methoxy-pyrimidin-4-yl)-piperazin-1-yl]-propyl}-1H-indole] | 0.324 |  |

More lines, main results first:

| EC50 [µM] | Compound | RABBIT SAPHENOUS VEIN pD2 |
| --- | --- | --- |
| 0.457 | CNS(=O)(=O)Cc1ccc2[nH]cc(CCCNC3CCN(c4ncnc(OC)c4OC)C3)c2c1 (stereo not shown) [Example 56, C-(3-{3-[1-(5,6-dimethoxy-pyrimidin-4-yl)-pyrrolidin-3-ylamino]-propyl}-1H-indol-5-yl)-N-methyl-methanesulfonamide] |  |
| 0.00724 | CNS(=O)(=O)Cc1ccc2[nH]cc(CCCN3CCN(c4ncnc(OC)c4OC)CC3)c2c1 [Example 51, C-(3-{3-[4-(5,6-dimethoxy-pyrimidin-4-yl)-piperazin-1-yl]-propyl}-1H-indol-5-yl)-N-methyl-methanesulfonamide] |  |
| 0.12 | CNS(=O)(=O)Cc1ccc2[nH]cc(CCCN(C)CCN(C)c3ncnc(OC)c3OC)c2c1 [Example 62, C-{3-[3-({2-[(5,6-dimethoxy-pyrimidin-4-yl)-methyl-amino]-ethyl}-methyl-amino)-propyl]-1H-indol-5-yl}-N-methyl-methanesulfonamide] |  |
| 0.347 | CNS(=O)(=O)Cc1ccc2[nH]cc(CCN(C)C)c2c1 [SUMATRIPTAN, sumatriptan, reference compound] |  |
